Test results published in PubChem BioAssay AID1259407 (Chemical Carcinogenesis Research Information System (CCRIS), 2018).
The source made the active and inactive calls. The rule behind the calls is not given here.

System: CCRIS mutagenicity, Ames/micronucleus/aberration tests
Experiment: CCRIS mutagenicity studies
[1] = Test System: AMES SALMONELLA TYPHIMURIUM, Strain/Indicator: TA98, Metabolic Activation: NONE, Method: PREINCUBATION
[2] = Test System: AMES SALMONELLA TYPHIMURIUM, Strain/Indicator: TA100, Metabolic Activation: NONE, Method: PREINCUBATION
[3] = Test System: AMES SALMONELLA TYPHIMURIUM, Strain/Indicator: TA98, Metabolic Activation: NONE, Method: STANDARD PLATE
[4] = Test System: AMES SALMONELLA TYPHIMURIUM, Strain/Indicator: TA100, Metabolic Activation: RAT, LIVER, S-9, AROCLOR 1254, Method: STANDARD PLATE

SMILES: O
- mutagenic call (End Point: In vitro chromosomal aberrations, Test System: D824 human dental pulp cells, Metabolic Activation: None): inactive; negative
- mutagenic call (End Point: In vitro chromosomal aberrations, Test System: D824 human dental pulp cells, Metabolic Activation: Rat, Liver, Postmitochondrial supernate (5%)): inactive; negative
- mutagenic call (Test System: AMES SALMONELLA TYPHIMURIUM, Strain/Indicator: TA97, Metabolic Activation: HAMSTER, LIVER, S-9, AROCLOR 1254 (10 OR 30%), Method: PREINCUBATION): inactive; negative
- mutagenic call (Test System: AMES SALMONELLA TYPHIMURIUM, Strain/Indicator: TA97, Metabolic Activation: NONE, Method: PREINCUBATION): inactive; negative
- mutagenic call (Test System: AMES SALMONELLA TYPHIMURIUM, Strain/Indicator: TA97, Metabolic Activation: RAT, LIVER, S-9, AROCLOR 1254 (10 OR 30%), Method: PREINCUBATION): inactive; negative
- mutagenic call (Test System: AMES SALMONELLA TYPHIMURIUM, Strain/Indicator: TA97, Metabolic Activation: RAT, LIVER, S-9, AROCLOR 1254, Method: PREINCUBATION): inactive; negative
- mutagenic call (Test System: AMES SALMONELLA TYPHIMURIUM, Strain/Indicator: TA98, Metabolic Activation: HAMSTER, LIVER, S-9, AROCLOR 1254 (10 OR 30%), Method: PREINCUBATION): inactive; negative
- mutagenic call [1]: inactive; negative
- mutagenic call (Test System: AMES SALMONELLA TYPHIMURIUM, Strain/Indicator: TA98, Metabolic Activation: RAT LIVER S-9, PHENOBARBITAL AND BETA-NAPHTHOFLAVONE, Method: PREINCUBATION): inactive; negative
- mutagenic call (Test System: AMES SALMONELLA TYPHIMURIUM, Strain/Indicator: TA98, Metabolic Activation: RAT, LIVER, S-9, AROCLOR 1254 (10 OR 30%), Method: PREINCUBATION): inactive; negative
- mutagenic call (Test System: AMES SALMONELLA TYPHIMURIUM, Strain/Indicator: TA98, Metabolic Activation: RAT, LIVER, S-9, PHENOBARBITAL AND BETA-NAPHTHOFLAVONE, Method: PREINCUBATION): inactive; negative
- mutagenic call (Test System: AMES SALMONELLA TYPHIMURIUM, Strain/Indicator: TA100, Metabolic Activation: HAMSTER, LIVER, S-9, AROCLOR 1254 (10 OR 30%), Method: PREINCUBATION): inactive; negative
- mutagenic call [2]: inactive; negative
- mutagenic call (Test System: AMES SALMONELLA TYPHIMURIUM, Strain/Indicator: TA100, Metabolic Activation: RAT LIVER S-9, PHENOBARBITAL AND BETA-NAPHTHOFLAVONE, Method: PREINCUBATION): inactive; negative
- mutagenic call (Test System: AMES SALMONELLA TYPHIMURIUM, Strain/Indicator: TA100, Metabolic Activation: RAT, LIVER, S-9, AROCLOR 1254 (10 OR 30%), Method: PREINCUBATION): inactive; negative
- mutagenic call (Test System: AMES SALMONELLA TYPHIMURIUM, Strain/Indicator: TA100, Metabolic Activation: RAT, LIVER, S-9, PHENOBARBITAL AND BETA-NAPHTHOFLAVONE, Method: PREINCUBATION): inactive; negative
- mutagenic call (Test System: AMES SALMONELLA TYPHIMURIUM, Strain/Indicator: TA102, Metabolic Activation: NONE, Method: PREINCUBATION): inactive; negative
- mutagenic call (Test System: AMES SALMONELLA TYPHIMURIUM, Strain/Indicator: TA102, Metabolic Activation: RAT, LIVER, S-9, AROCLOR 1254, Method: PREINCUBATION): inactive; negative
- mutagenic call (Test System: AMES SALMONELLA TYPHIMURIUM, Strain/Indicator: TA104, Metabolic Activation: NONE, Method: PREINCUBATION): inactive; negative
- mutagenic call (Test System: AMES SALMONELLA TYPHIMURIUM, Strain/Indicator: TA104, Metabolic Activation: RAT, LIVER, S-9, SODIUM PHENOBARBITAL AND 5,6-BENZOFLAVONE, Method: PREINCUBATION): inactive; negative
- mutagenic call (Test System: AMES SALMONELLA TYPHIMURIUM, Strain/Indicator: TA1535, Metabolic Activation: HAMSTER, LIVER, S-9, AROCLOR 1254 (10 OR 30%), Method: PREINCUBATION): inactive; negative
- mutagenic call (Test System: AMES SALMONELLA TYPHIMURIUM, Strain/Indicator: TA1535, Metabolic Activation: NONE, Method: PREINCUBATION): inactive; negative
- mutagenic call (Test System: AMES SALMONELLA TYPHIMURIUM, Strain/Indicator: TA1535, Metabolic Activation: RAT LIVER S-9, PHENOBARBITAL AND BETA-NAPHTHOFLAVONE, Method: PREINCUBATION): inactive; negative
- mutagenic call (Test System: AMES SALMONELLA TYPHIMURIUM, Strain/Indicator: TA1535, Metabolic Activation: RAT, LIVER, S-9, AROCLOR 1254 (10 OR 30%), Method: PREINCUBATION): inactive; negative
- mutagenic call (Test System: AMES SALMONELLA TYPHIMURIUM, Strain/Indicator: TA1535, Metabolic Activation: RAT, LIVER, S-9, PHENOBARBITAL AND BETA-NAPHTHOFLAVONE, Method: PREINCUBATION): inactive; negative
- mutagenic call (Test System: AMES SALMONELLA TYPHIMURIUM, Strain/Indicator: TA1537, Metabolic Activation: HAMSTER, LIVER, S-9, AROCLOR 1254 (30%), Method: PREINCUBATION): inactive; negative
- mutagenic call (Test System: AMES SALMONELLA TYPHIMURIUM, Strain/Indicator: TA1537, Metabolic Activation: NONE, Method: PREINCUBATION): inactive; negative
- mutagenic call (Test System: AMES SALMONELLA TYPHIMURIUM, Strain/Indicator: TA1537, Metabolic Activation: RAT LIVER S-9, PHENOBARBITAL AND BETA-NAPHTHOFLAVONE, Method: PREINCUBATION): inactive; negative
- mutagenic call (Test System: AMES SALMONELLA TYPHIMURIUM, Strain/Indicator: TA1537, Metabolic Activation: RAT, LIVER, S-9, AROCLOR 1254 (30%), Method: PREINCUBATION): inactive; negative
- mutagenic call (Test System: AMES SALMONELLA TYPHIMURIUM, Strain/Indicator: TA1537, Metabolic Activation: RAT, LIVER, S-9, PHENOBARBITAL AND BETA-NAPHTHOFLAVONE, Method: PREINCUBATION): inactive; negative
- mutagenic call (Test System: AMES SALMONELLA TYPHIMURIUM, Strain/Indicator: TA1538, Metabolic Activation: NONE, Method: PREINCUBATION): inactive; negative
- mutagenic call (Test System: AMES SALMONELLA TYPHIMURIUM, Strain/Indicator: TA1538, Metabolic Activation: RAT LIVER S-9, PHENOBARBITAL AND BETA-NAPHTHOFLAVONE, Method: PREINCUBATION): inactive; negative
- mutagenic call (Test System: E. COLI, Strain/Indicator: WP2UVRA/PKM101, Metabolic Activation: NONE, Method: PREINCUBATION): inactive; negative
- mutagenic call (Test System: E. COLI, Strain/Indicator: WP2UVRA/PKM101, Metabolic Activation: RAT, LIVER, S-9, SODIUM PHENOBARBITAL AND 5,6-BENZOFLAVONE, Method: PREINCUBATION): inactive; negative
- mutagenic call (Test System: E. COLI, Strain/Indicator: WP2UVRA, Metabolic Activation: NONE, Method: PREINCUBATION): inactive; negative
- mutagenic call (Test System: E. COLI, Strain/Indicator: WP2UVRA, Metabolic Activation: RAT, LIVER, S-9, SODIUM PHENOBARBITAL AND 5,6-BENZOFLAVONE, Method: PREINCUBATION): inactive; negative
- mutagenic call (Test System: E.COLI, Strain/Indicator: WP2UVRA, Metabolic Activation: NONE, Method: PREINCUBATION): inactive; negative
- mutagenic call (Test System: E.COLI, Strain/Indicator: WP2UVRA, Metabolic Activation: RAT LIVER S-9, PHENOBARBITAL AND BETA-NAPHTHOFLAVONE, Method: PREINCUBATION): inactive; negative
- mutagenic call (Test System: MOUSE LYMPHOMA, Strain/Indicator: L5178Y (TK+/TK-), Metabolic Activation: NONE, Method: SUSPENSION/PLATE): inactive; negative
- mutagenic call (Test System: MOUSE LYMPHOMA, Strain/Indicator: L5178Y (TK+/TK-), Metabolic Activation: RAT, LIVER, S-9, AROCLOR 1254, Method: SUSPENSION/PLATE): active; positive

SMILES: CNC(=O)N(C)c1nc2ccccc2s1
- mutagenic call [3]: inactive; negative
- mutagenic call (Test System: AMES SALMONELLA TYPHIMURIUM, Strain/Indicator: TA98, Metabolic Activation: RAT, LIVER, S-9, AROCLOR 1254, Method: STANDARD PLATE): inactive; negative
- mutagenic call (Test System: AMES SALMONELLA TYPHIMURIUM, Strain/Indicator: TA100, Metabolic Activation: NONE, Method: STANDARD PLATE): inactive; negative
- mutagenic call [4]: inactive; negative

SMILES: O=S(=O)(O)OCc1c2ccccc2c2ccc3cccc4ccc1c2c43
- mutagenic call [1]: active; positive
- mutagenic call [3]: active; positive
- mutagenic call [2]: active; positive
- mutagenic call (Test System: CHINESE HAMSTER V-79, Strain/Indicator: V-79 (HGPRT)/6-THIOGUANINE, Metabolic Activation: NONE): active; positive
- mutagenic call (Test System: CHINESE HAMSTER V-79, Strain/Indicator: V-79 (NA/K-ATPASE)/OUABAIN, Metabolic Activation: NONE): active; positive

SMILES: Cc1ccc2nc3c4c(ccc3c(C)c2c1)[C@H](O)[C@@H](O)C=C4
- mutagenic call [4]: active; positive
